What follows are molecules tested against human melanin concentrating hormone receptor (MCHR1) (Homo sapiens (Human), UniProt Q99705, A5T/E4Q) (assay: Radioligand binding assay for assessment of MCHR1 activity). Conditions: Table A; membranes of HEK-293 cells expressing mutated (E4Q, A5T) hMCHR1; competition with [Phe13,[125I]Tyr19]-MCH.
Procedure: Radioligand Binding Assay for Assessment of MCHR1 Activity
An in vitro binding assay was used to determine the compound Ki value or ability to antagonize binding of a peptide agonist to the human melanin concentrating hormone receptor (MCHR1). […] Binding experiments were carried out with 0.5-1.0 μg of membrane protein incubated in a total of 0.2 mL in 25 mM HEPES (pH 7.4) with 10 mM MgCl2, 2 mM EGTA, and 0.1% BSA (Binding Buffer) for 90 min. For competition binding assays, reactions were carried out in the presence of with 0.06-0.1 nM [Phe^13, [^125I]Tyr^19]-MCH and increasing concentrations of unlabeled test molecules. […] Filters were dried, 0.05 mL MicroScint 20 was added to each well and radioactivity was subsequently quantified by scintillation counting on a TOPCOUNT® microplate scintillation counter (Packard). Inhibitory constants were determined by nonlinear least squares analysis using a four parameter logistic equation.

Sequence of human melanin concentrating hormone receptor (MCHR1) (Q99705 whole entry E4Q/A5T): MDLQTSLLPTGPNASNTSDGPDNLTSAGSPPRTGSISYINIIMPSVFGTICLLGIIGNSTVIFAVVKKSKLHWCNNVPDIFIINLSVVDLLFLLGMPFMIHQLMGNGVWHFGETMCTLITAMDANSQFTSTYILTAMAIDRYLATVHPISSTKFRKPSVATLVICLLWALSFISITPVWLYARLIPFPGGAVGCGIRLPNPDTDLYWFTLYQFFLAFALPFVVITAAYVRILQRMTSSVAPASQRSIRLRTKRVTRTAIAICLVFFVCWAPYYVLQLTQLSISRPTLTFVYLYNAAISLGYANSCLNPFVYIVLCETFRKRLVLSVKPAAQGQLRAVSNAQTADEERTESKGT

Compound	Ki
COc1cc(N2CC[C@@H](Oc3ccc(C(F)(F)F)cc3)C2=O)ccc1OCC(C)(C)O [Example 9, (R)-1-(4-(2-Hydroxy-2-methylpropoxy)-3-methoxyphenyl)-3-(4-(trifluoromethyl)phenoxy)pyrrolidin-2-one]	0.023 µM
COc1cc(N2CC[C@H](Oc3ccc(C(F)(F)F)cc3)C2=O)ccc1OCC(C)(C)O [Example 10, (S)-1-(4-(2-Hydroxy-2-methylpropoxy)-3-methoxyphenyl)-3-(4-(trifluoromethyl)phenoxy)pyrrolidin-2-one]	6 µM

Same assay, conditions: Table C; membranes of HEK-293 cells expressing mutated (E4Q, A5T) hMCHR1; competition with [Phe13,[125I]Tyr19]-MCH

Compound	Ki
Cc1cc(N2CC[C@H](Oc3ccc(-c4ccccc4)cc3)C2=O)ccc1OCCS(C)(=O)=O [Example 106, (S)-3-(Biphenyl-4-yloxy)-1-(3-methyl-4-(2-(methylsulfonyl)ethoxy)phenyl)pyrrolidin-2-one]	0.636 µM
Cc1cc(N2CCC(Oc3ccc(-c4ccccc4F)cc3)C2=O)ccc1OCCS(C)(=O)=O (stereo not shown) [Example 107]	0.005 µM
Cc1cc(N2CCC(Oc3ccc(OC(F)(F)F)cc3)C2=O)ccc1OCC[S+](C)[O-] (stereo not shown) [Example 101, 1-(3-Methyl-4-(2-(methylsulfinyl)ethoxy)phenyl)-3-(4-(trifluoromethoxy)phenoxy)pyrrolidin-2-one]	0.077 µM
Cc1cc(N2CC[C@@H](Oc3ccc(-c4ccccc4)cc3)C2=O)ccc1OCCS(C)(=O)=O [Example 105, (R)-3-(Biphenyl-4-yloxy)-1-(3-methyl-4-(2-(methylsulfonyl)ethoxy)phenyl)pyrrolidin-2-one]	0.002 µM
Cc1cc(N2CCC(Oc3ccc(-c4ccncc4)cc3)C2=O)ccc1OCCS(C)(=O)=O (stereo not shown) [Example 113, 1-(3-Methyl-4-(2-(methylsulfonyl)ethoxy)phenyl)-3-(4-(pyridin-4-yl)phenoxy)pyrrolidin-2-one]	0.055 µM
Cc1cc(N2CCC(Oc3ccc(C4CC4)cc3)C2=O)ccc1OCCS(C)(=O)=O (stereo not shown) [Example 114]	0.007 µM

Same assay, conditions: Table D; membranes of HEK-293 cells expressing mutated (E4Q, A5T) hMCHR1; competition with [Phe13,[125I]Tyr19]-MCH

Compound	Ki
COc1cc(N2CC=C(Oc3ccc(C4CC4)cc3)C2=O)ccc1OCC(C)(C)O [Example 116, 3-(4-Cyclopropylphenoxy)-1-(4-(2-hydroxy-2-methylpropoxy)-3-methoxyphenyl)-1H-pyrrol-2(5H)-one]	0.003 µM
COc1cc(N2CC=C(Oc3ccc(C4CC4)cc3)C2=O)ccc1O [Example 120]	0.01 µM
